Experimental data taken from patent publication EP0227100A2, “N-Vinylimidazoles and -triazoles and pharmaceutical compositions containing them” (SHIONOGI SEIYAKU KABUSHIKI KAISHA, priority 1985, dated 1987).
Values after ≈ are worked out from the molar mass of the structure shown.

What was measured:
Type in all cases: cell-based
Trichophyton asteroides = assay: Minimum inhibitory concentration against Trichophyton asteroides, test tube experiment in Sabouraud's dextrose broth
Description: In the test, Sabouraud's dextrose broth* was used.

C. albicans KE-2 = assay: Inhibition test against pseudomycelium formation of Candida albicans; conditions: minimum effective concentration preventing typical pseudomycelium formation; EMEM with 20 % calf serum, 1 x 10⁶ yeast cells per milliliter, 18 hr. at 37 °C; read-out: Inhibitory Concentration of Pseudomyselium Formation
Experimental: Inhibition test against pseudomycelium formation of Candida albicans.
C. albicans KE-2 was inoculated to EMEM (Nissan 2 made by Nissui Seiyaku, Ltd.) supplemented with 20 % calf serum so that its final inoculum might be 1 x 10⁶ yeast cells per milliliter. The test compounds were added thereon in two fold dilution series. After inocubation for 18 hr. at 37 °C, the fungal growth in each drug concentration was smeared and fixed on a slide glass, and its morphological feature on the presence or absence of the pseudomycelium formation was examined by a microscope following Giemsa staining. Minimum effective concentration was defined as the lowest concentration of the compound which prevented typical pseudomycelium formation.

[1] = tested on: influenza virus Ao/WSN (H₁N₁); assay: microbe, parasite or virus in culture; conditions: unidentified influenza virus, MDCK, 24 h, read-out: ED 50 (2) Virus Yield Test
in vitro = conditions: dog, mdck
Experimental: (3) Colony Formation Test The action to the host cell was examined by the following method: MDCK cells (coming from dog's kidney) were adjusted to a concentration of 200 cells/ml with a growth medium and poured into each pore of Lindbrow's 12 pores microplate 1 ml by 1 ml. The test compound diluted with a growth medium was added to the pores 1 ml by 1 ml, and the whole was cultivated in a cultivating apparatus filled with 5% carbon dioxide gas at 37°C for 7 days. After dyeing with 1% crystal violet dyeing solution for 15 min, the number of cell colonies was counted. The concentration of the test compound which inhibited 50% the growth of cell colonies in comparison with obtained without using the test compound was evaluated as TD₅₀ value for judging the toxicity against cell.

[2] = tested on: influenza virus Ao/WSN (H₁N₁); assay: Antiviral activity: Plaque Reduction Test in MDCK cells; conditions: unidentified influenza virus, read-out: ED 50 (1) Plaque Reduction Test

| SMILES | MIC (Trichophyton asteroides) | minimal effective concentration (C. albicans KE-2) | also measured |
| --- | --- | --- | --- |
| C=C(c1c(O)cccc1OCCCC)n1ccnc1 [Compound I-4] | 0.1 µg/mL (≈ 0.387 µM) |  |  |
| CCC(CC)=C(c1cc(Cl)ccc1O)n1ccnc1 [Compound I-5] | 0.1 µg/mL (≈ 0.361 µM) | 0.63 µg/mL |  |
| CCC(CC)=C(c1cc(Cl)ccc1O)n1cncn1 [Compound I-6] | 0.1 µg/mL (≈ 0.36 µM) |  |  |
| Oc1ccc(Cl)cc1/C(=C/c1ccc(Cl)cc1Cl)n1ccnc1 [Compound I-9] | 0.1 µg/mL (≈ 0.273 µM) |  |  |
| Oc1ccc(Cl)cc1C(=C1CCCCC1)n1ccnc1 [Compound I-22] | 0.1 µg/mL (≈ 0.346 µM) |  |  |
| C=C(c1cc(-c2ccccc2)ccc1OC)n1ccnc1 [Compound I-49] | 0.1 µg/mL (≈ 0.362 µM) |  |  |
| CCC(CC)=C(c1cc(Cl)ccc1OC)n1ccnc1 [Compound I-50] | 0.1 µg/mL (≈ 0.344 µM) | 0.31 µg/mL |  |
| CCCCOc1ccc(Cl)cc1C(=C(CC)CC)n1ccnc1 [Compound I-51] |  | 0.31 µg/mL |  |
| CCC(CC)=C(c1cc(Cl)ccc1OC(C)C)n1ccnc1 [Compound I-52] | 0.1 µg/mL (≈ 0.314 µM) | 0.08 µg/mL |  |
| COc1ccc(Cl)cc1C(=C1CCCCC1)n1ccnc1 [Compound I-56] | 0.1 µg/mL (≈ 0.33 µM) |  |  |
| COc1ccc(Cl)cc1C(=C1CCCCC1)n1cncn1 [Compound I-57] |  |  | EC50 [1]: 30 µg/mL (≈ 98.8 µM); CC50 at 168 h (in vitro): 70 µg/mL (≈ 230 µM); EC50 [2]: 48 µg/mL (≈ 158 µM) |
| CC(C)Oc1ccc(Cl)cc1C(=C1CCCCC1)n1cncn1 [Compound I-58] |  | 0.16 µg/mL |  |
| CC(C)Oc1ccc(Cl)cc1C(=C1CCCCC1)n1ccnc1 [Compound I-66] | 0.1 µg/mL (≈ 0.302 µM) | 0.08 µg/mL |  |
| C=C(c1cc(Cl)ccc1OCC(=O)c1ccc(Cl)cc1)n1ccnc1 [Compound I-107] | 0.1 µg/mL (≈ 0.268 µM) |  |  |
